Test results as given in US12612424B2, “HPK1 inhibitors and uses thereof” (Regor Pharmaceuticals, Inc., priority 2019, dated 2026).

Tests used:
[1] = target: HPK1 (Homo sapiens, UniProt Q92918); experiment: HPK1 biochemical assay (ADP-GLO Kinase Assay); details: B*: testing performed in a first testing facility; read-out: HPK1 IC50 (nM) Relative, B*
Procedure, shortened: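 HPK1 (0.6 ng/μL final) activity was followed with MBP substrate and 10 μM ATP in Tris pH 7.5/MgCl2/BSA/DTT buffer, measured by ADP-Glo luminescence. Compounds were tested as 3-fold dilutions from 10 μM. IC50 came from a three-parameter logistic fit, with inhibition normalised to high/low controls.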

[2] = target: T1, JAK3 (Homo sapiens, UniProt P52333); experiment: JAK3 biochemical assay (ADP-GLO Kinase Assay)
T1 construct: purchased Thermo fisher PV3855
T1 sequence (P52333 781-1124 limits assumed): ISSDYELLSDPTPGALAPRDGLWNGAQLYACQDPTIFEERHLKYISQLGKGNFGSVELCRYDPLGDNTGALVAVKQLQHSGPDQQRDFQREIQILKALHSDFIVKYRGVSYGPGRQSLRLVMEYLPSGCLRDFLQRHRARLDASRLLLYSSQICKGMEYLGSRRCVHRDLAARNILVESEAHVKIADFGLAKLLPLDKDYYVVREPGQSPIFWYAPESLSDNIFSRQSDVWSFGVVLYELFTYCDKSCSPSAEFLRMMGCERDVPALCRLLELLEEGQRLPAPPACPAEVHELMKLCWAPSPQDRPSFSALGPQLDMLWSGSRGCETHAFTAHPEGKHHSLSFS
Procedure, shortened: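 Luminescent ADP-Glo readout after a 60 min, 25 °C reaction of JAK3 (0.78 ng) on Poly(E4Y1) (0.2 μg/μL) at 4 μM ATP, Tris pH 7.5 buffer with MgCl2, BSA and DTT. Compounds tested 10 μM down to 0.508 nM in 3-fold steps; % inhibition normalised to DMSO and reference-compound controls, IC50 from three-parameter fit.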

Sequence of HPK1 (Q92918 whole entry): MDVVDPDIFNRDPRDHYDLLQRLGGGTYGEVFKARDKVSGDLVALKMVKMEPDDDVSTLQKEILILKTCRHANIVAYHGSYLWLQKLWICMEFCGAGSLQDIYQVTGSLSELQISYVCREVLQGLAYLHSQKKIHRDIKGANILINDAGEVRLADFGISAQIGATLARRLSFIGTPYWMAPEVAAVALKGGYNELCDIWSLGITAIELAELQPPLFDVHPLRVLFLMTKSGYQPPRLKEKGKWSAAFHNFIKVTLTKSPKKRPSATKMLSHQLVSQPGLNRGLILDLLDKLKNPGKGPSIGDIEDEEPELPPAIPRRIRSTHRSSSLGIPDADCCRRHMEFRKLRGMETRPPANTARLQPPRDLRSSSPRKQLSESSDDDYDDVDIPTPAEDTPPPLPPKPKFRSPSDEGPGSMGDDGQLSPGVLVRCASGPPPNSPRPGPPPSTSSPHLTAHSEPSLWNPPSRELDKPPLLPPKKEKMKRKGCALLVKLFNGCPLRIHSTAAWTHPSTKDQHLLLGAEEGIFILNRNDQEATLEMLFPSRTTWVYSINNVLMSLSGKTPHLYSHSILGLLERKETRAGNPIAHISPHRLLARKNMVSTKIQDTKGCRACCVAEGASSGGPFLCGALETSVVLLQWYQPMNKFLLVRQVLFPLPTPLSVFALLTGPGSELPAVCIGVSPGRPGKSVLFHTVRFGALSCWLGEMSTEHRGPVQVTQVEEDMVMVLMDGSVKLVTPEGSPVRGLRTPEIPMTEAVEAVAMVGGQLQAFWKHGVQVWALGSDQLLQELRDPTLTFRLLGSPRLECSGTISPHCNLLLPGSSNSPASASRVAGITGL

IC50 [1]: ≤ 100 nM | IC50 ([2]; B*: testing performed in a first testing facility, read-out: JAK3 IC50 (nM) Relative, B*): > 1000 nM | JAKs/HPK1 IC50 Ratio, B* ([2]; ratio of JAK3 IC50 to HPK1 IC50, first testing facility): >1500
SMILES: COc1cc2c(cc1Nc1ncc(Cl)c(N3CCc4ccc(C(F)F)cc43)n1)CN(C)CC2 [Example 91, N-(5-chloro-4-(6-(difluoromethyl)indolin-1-yl)pyrimidin-2-yl)-6-methoxy-2-methyl-1,2,3,4-tetrahydroisoquinolin-7-amine]
